{"source": "the supplement of paper PMC10307832", "experiment_in_all_cases": "relative viability (nuclei count vs DMSO), 5 days (fraction); higher = more cells survive", "key": {"COR-L 105": {"test_system": "COR-L 105", "in_short": "(§1)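 Lung cancer cell lines, seeded in 1536-well plates, were treated the following day by pin tool with a single drug or with five library-drug doses (not always all listed) in √10 steps on top of a fixed anchor-drug dose. Cells were fixed and nuclei stained in one step after 5 days, and nuclei were counted. Relative viability is the nuclei count for treated wells divided by that for vehicle wells, reported as medians of duplicate plates.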"}, "ChaGo-K-1": {"test_system": "ChaGo-K-1", "in_short": "as §1"}, "201T": {"test_system": "201T", "in_short": "as §1"}, "NCI-H322M": {"test_system": "NCI-H322M", "in_short": "as §1"}, "NCI-H2126": {"test_system": "NCI-H2126", "in_short": "as §1"}, "NCI-H2347": {"test_system": "NCI-H2347", "in_short": "as §1"}, "EPLC-272H": {"test_system": "EPLC-272H", "in_short": "as §1"}, "LCLC-97TM1": {"test_system": "LCLC-97TM1", "in_short": "as §1"}, "PC-14": {"test_system": "PC-14", "in_short": "as §1"}, "RERF-LC-KJ": {"test_system": "RERF-LC-KJ", "in_short": "as §1"}, "HCC-78": {"test_system": "HCC-78", "in_short": "as §1"}, "NCI-H647": {"test_system": "NCI-H647", "in_short": "as §1"}, "NCI-H520": {"test_system": "NCI-H520", "in_short": "as §1"}, "NCI-H1666": {"test_system": "NCI-H1666", "in_short": "as §1"}, "NCI-H23": {"test_system": "NCI-H23", "in_short": "as §1"}, "NCI-H2087": {"test_system": "NCI-H2087", "in_short": "as §1"}, "LC-2-ad": {"test_system": "LC-2-ad", "in_short": "as §1"}, "HCC-827": {"test_system": "HCC-827", "in_short": "as §1"}, "NCI-H1915": {"test_system": "NCI-H1915", "in_short": "as §1"}, "NCI-H661": {"test_system": "NCI-H661", "in_short": "as §1"}, "NCI-H2405": {"test_system": "NCI-H2405", "in_short": "as §1"}, "NCI-H650": {"test_system": "NCI-H650", "in_short": "as §1"}, "H3255": {"test_system": "H3255", "in_short": "as §1"}}, "data": [{"smiles": "O=C(O)c1ccc(-c2c[nH]c3ncc(-c4ccccc4)cc23)cc1C1CCCC1", "note": "+ O=C(CCCCCCC(=O)Nc1ccccc1)NO [Vorinostat] (partner 1 µM)", "values": [{"measurement": "relative viability", "setting": "COR-L 105; first compound 0.04 µM", "result": 0.912}, {"measurement": "relative viability", "setting": "COR-L 105; first compound 0.1265 µM", "result": 0.942}, {"measurement": "relative viability", "setting": "COR-L 105; first compound 0.4 µM", "result": 0.773}, {"measurement": "relative viability", "setting": "COR-L 105; first compound 1.265 µM", "result": 0.921}, {"measurement": "relative viability", "setting": "ChaGo-K-1; first compound 0.04 µM", "result": 0.739}, {"measurement": "relative viability", "setting": "ChaGo-K-1; first compound 0.1265 µM", "result": 0.786}, {"measurement": "relative viability", "setting": "ChaGo-K-1; first compound 0.4 µM", "result": 0.772}, {"measurement": "relative viability", "setting": "ChaGo-K-1; first compound 1.265 µM", "result": 0.686}, {"measurement": "relative viability", "setting": "201T; first compound 0.04 µM", "result": 0.949}, {"measurement": "relative viability", "setting": "201T; first compound 0.1265 µM", "result": 0.963}, {"measurement": "relative viability", "setting": "201T; first compound 0.4 µM", "result": 0.952}, {"measurement": "relative viability", "setting": "201T; first compound 1.265 µM", "result": 0.989}, {"measurement": "relative viability", "setting": "NCI-H322M; first compound 0.04 µM", "result": 0.909}, {"measurement": "relative viability", "setting": "NCI-H322M; first compound 0.1265 µM", "result": 0.858}, {"measurement": "relative viability", "setting": "NCI-H322M; first compound 0.4 µM", "result": 0.898}, {"measurement": "relative viability", "setting": "NCI-H322M; first compound 1.265 µM", "result": 0.855}, {"measurement": "relative viability", "setting": "NCI-H2126; first compound 0.04 µM", "result": 0.823}, {"measurement": "relative viability", "setting": "NCI-H2126; first compound 0.1265 µM", "result": 0.755}, {"measurement": "relative viability", "setting": "NCI-H2126; first compound 0.4 µM", "result": 0.786}, {"measurement": "relative viability", "setting": "NCI-H2126; first compound 1.265 µM", "result": 0.616}, {"measurement": "relative viability", "setting": "NCI-H2347; first compound 0.04 µM", "result": 0.576}, {"measurement": "relative viability", "setting": "NCI-H2347; first compound 0.1265 µM", "result": 0.773}, {"measurement": "relative viability", "setting": "NCI-H2347; first compound 0.4 µM", "result": 0.597}, {"measurement": "relative viability", "setting": "NCI-H2347; first compound 1.265 µM", "result": 0.46}, {"measurement": "relative viability", "setting": "EPLC-272H; first compound 0.04 µM", "result": 0.503}, {"measurement": "relative viability", "setting": "EPLC-272H; first compound 0.1265 µM", "result": 0.654}, {"measurement": "relative viability", "setting": "EPLC-272H; first compound 0.4 µM", "result": 0.483}, {"measurement": "relative viability", "setting": "EPLC-272H; first compound 1.265 µM", "result": 0.261}, {"measurement": "relative viability", "setting": "LCLC-97TM1; first compound 0.04 µM", "result": 0.876}, {"measurement": "relative viability", "setting": "LCLC-97TM1; first compound 0.1265 µM", "result": 0.94}, {"measurement": "relative viability", "setting": "LCLC-97TM1; first compound 0.4 µM", "result": 0.747}, {"measurement": "relative viability", "setting": "LCLC-97TM1; first compound 1.265 µM", "result": 0.525}, {"measurement": "relative viability", "setting": "PC-14; first compound 0.04 µM", "result": 0.733}, {"measurement": "relative viability", "setting": "PC-14; first compound 0.1265 µM", "result": 0.781}, {"measurement": "relative viability", "setting": "PC-14; first compound 0.4 µM", "result": 0.786}, {"measurement": "relative viability", "setting": "PC-14; first compound 1.265 µM", "result": 0.723}, {"measurement": "relative viability", "setting": "RERF-LC-KJ; first compound 0.04 µM", "result": 0.714}, {"measurement": "relative viability", "setting": "RERF-LC-KJ; first compound 0.1265 µM", "result": 0.74}, {"measurement": "relative viability", "setting": "RERF-LC-KJ; first compound 0.4 µM", "result": 0.724}, {"measurement": "relative viability", "setting": "RERF-LC-KJ; first compound 1.265 µM", "result": 0.574}, {"measurement": "relative viability", "setting": "HCC-78; first compound 0.1265 µM", "result": 0.451}, {"measurement": "relative viability", "setting": "HCC-78; first compound 0.4 µM", "result": 0.441}, {"measurement": "relative viability", "setting": "HCC-78; first compound 1.265 µM", "result": 0.448}, {"measurement": "relative viability", "setting": "NCI-H647; first compound 0.04 µM", "result": 0.645}, {"measurement": "relative viability", "setting": "NCI-H647; first compound 0.1265 µM", "result": 0.47}, {"measurement": "relative viability", "setting": "NCI-H647; first compound 0.4 µM", "result": 0.491}, {"measurement": "relative viability", "setting": "NCI-H647; first compound 1.265 µM", "result": 0.361}, {"measurement": "relative viability", "setting": "NCI-H520; first compound 0.04 µM", "result": 0.643}, {"measurement": "relative viability", "setting": "NCI-H520; first compound 0.1265 µM", "result": 0.816}, {"measurement": "relative viability", "setting": "NCI-H520; first compound 0.4 µM", "result": 0.71}, {"measurement": "relative viability", "setting": "NCI-H520; first compound 1.265 µM", "result": 0.484}, {"measurement": "relative viability", "setting": "NCI-H1666; first compound 0.04 µM", "result": 1.04}, {"measurement": "relative viability", "setting": "NCI-H1666; first compound 0.1265 µM", "result": 1.02}, {"measurement": "relative viability", "setting": "NCI-H1666; first compound 0.4 µM", "result": 1.08}, {"measurement": "relative viability", "setting": "NCI-H1666; first compound 1.265 µM", "result": 0.737}, {"measurement": "relative viability", "setting": "NCI-H23; first compound 0.04 µM", "result": 0.791}, {"measurement": "relative viability", "setting": "NCI-H23; first compound 0.1265 µM", "result": 0.844}, {"measurement": "relative viability", "setting": "NCI-H23; first compound 0.4 µM", "result": 0.588}, {"measurement": "relative viability", "setting": "NCI-H23; first compound 1.265 µM", "result": 0.575}, {"measurement": "relative viability", "setting": "NCI-H2087; first compound 0.04 µM", "result": 0.916}, {"measurement": "relative viability", "setting": "NCI-H2087; first compound 0.1265 µM", "result": 0.924}, {"measurement": "relative viability", "setting": "NCI-H2087; first compound 0.4 µM", "result": 0.611}, {"measurement": "relative viability", "setting": "NCI-H2087; first compound 1.265 µM", "result": 0.465}, {"measurement": "relative viability", "setting": "LC-2-ad; first compound 0.04 µM", "result": 0.692}, {"measurement": "relative viability", "setting": "LC-2-ad; first compound 0.1265 µM", "result": 0.696}, {"measurement": "relative viability", "setting": "LC-2-ad; first compound 0.4 µM", "result": 0.668}, {"measurement": "relative viability", "setting": "LC-2-ad; first compound 1.265 µM", "result": 0.454}, {"measurement": "relative viability", "setting": "HCC-827; first compound 0.04 µM", "result": 0.372}, {"measurement": "relative viability", "setting": "HCC-827; first compound 0.1265 µM", "result": 0.913}, {"measurement": "relative viability", "setting": "HCC-827; first compound 0.4 µM", "result": 0.815}, {"measurement": "relative viability", "setting": "HCC-827; first compound 1.265 µM", "result": 0.75}, {"measurement": "relative viability", "setting": "NCI-H1915; first compound 0.04 µM", "result": 0.532}, {"measurement": "relative viability", "setting": "NCI-H1915; first compound 0.1265 µM", "result": 0.525}, {"measurement": "relative viability", "setting": "NCI-H1915; first compound 0.4 µM", "result": 0.501}, {"measurement": "relative viability", "setting": "NCI-H1915; first compound 1.265 µM", "result": 0.479}, {"measurement": "relative viability", "setting": "NCI-H661; first compound 0.04 µM", "result": 0.766}, {"measurement": "relative viability", "setting": "NCI-H661; first compound 0.1265 µM", "result": 0.763}, {"measurement": "relative viability", "setting": "NCI-H661; first compound 0.4 µM", "result": 0.787}, {"measurement": "relative viability", "setting": "NCI-H661; first compound 1.265 µM", "result": 0.787}, {"measurement": "relative viability", "setting": "NCI-H2405; first compound 0.04 µM", "result": 1.02}, {"measurement": "relative viability", "setting": "NCI-H2405; first compound 0.1265 µM", "result": 1.12}, {"measurement": "relative viability", "setting": "NCI-H2405; first compound 0.4 µM", "result": 0.944}, {"measurement": "relative viability", "setting": "NCI-H2405; first compound 1.265 µM", "result": 0.668}, {"measurement": "relative viability", "setting": "NCI-H650; first compound 0.04 µM", "result": 0.48}, {"measurement": "relative viability", "setting": "NCI-H650; first compound 0.1265 µM", "result": 0.394}, {"measurement": "relative viability", "setting": "NCI-H650; first compound 0.4 µM", "result": 0.413}, {"measurement": "relative viability", "setting": "NCI-H650; first compound 1.265 µM", "result": 0.22}, {"measurement": "relative viability", "setting": "H3255; first compound 0.04 µM", "result": 0.872}, {"measurement": "relative viability", "setting": "H3255; first compound 0.1265 µM", "result": 0.795}, {"measurement": "relative viability", "setting": "H3255; first compound 0.4 µM", "result": 0.83}, {"measurement": "relative viability", "setting": "H3255; first compound 1.265 µM", "result": 0.791}]}]}
